Like-named read-outs stand apart in the source and are kept apart here.
What was measured:
5-LO = target: T1, 5-LO (Bos taurus, UniProt F1MQ78); experiment: Bovine PMNL 5-Lipoxygenase Assay (inhibition of 5-HETE and LTB4 biosynthesis); assay type: cell-based; settings: for inhibition at 30 µM: PMNL, read-out: 5-LO percent inhibition
T1 construct: Polymorphonuclear leukocytes (PMNL) were prepared from sodium EDTA-anticoagulated bovine blood; endogenous in cells; host or cells: bovine polymorphonuclear leukocytes isolated from EDTA-anticoagulated blood (intact cells, A23187-stimulated)
T1 sequence (F1MQ78 1-674): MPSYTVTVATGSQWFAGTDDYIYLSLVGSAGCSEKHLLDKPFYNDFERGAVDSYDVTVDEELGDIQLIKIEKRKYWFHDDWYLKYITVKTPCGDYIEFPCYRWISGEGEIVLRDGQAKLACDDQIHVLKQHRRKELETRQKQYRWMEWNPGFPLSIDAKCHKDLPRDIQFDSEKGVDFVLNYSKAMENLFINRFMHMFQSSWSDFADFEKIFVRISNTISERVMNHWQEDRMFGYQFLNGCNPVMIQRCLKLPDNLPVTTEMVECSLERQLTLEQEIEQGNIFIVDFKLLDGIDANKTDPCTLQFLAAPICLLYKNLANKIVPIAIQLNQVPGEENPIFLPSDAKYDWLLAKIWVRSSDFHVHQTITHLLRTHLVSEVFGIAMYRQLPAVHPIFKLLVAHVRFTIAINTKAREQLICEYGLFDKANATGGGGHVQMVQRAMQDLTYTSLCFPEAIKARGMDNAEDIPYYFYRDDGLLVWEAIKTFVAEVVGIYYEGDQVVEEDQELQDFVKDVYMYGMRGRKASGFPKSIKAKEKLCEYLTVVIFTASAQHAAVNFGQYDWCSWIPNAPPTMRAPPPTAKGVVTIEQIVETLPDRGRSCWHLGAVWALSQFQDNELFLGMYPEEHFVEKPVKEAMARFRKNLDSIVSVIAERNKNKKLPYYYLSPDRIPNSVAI
Method: Polymorphonuclear leukocytes (PMNL) were prepared from sodium EDTA-anticoagulated bovine blood, essentially as described by Walstra, P. et al., "Leukotriene Formation by Bovine Polymorphonuclear Leukocytes", Biochim. Biophys. Acta, 795,499-503 (1984). Contaminating platelets were removed by repeated centrifugations at 100 g for 20 min. The purified PMN leukocytes were suspended at a concentration of 1×10^7 cells/ml in phosphate buffered saline (PBS, composed of 8.00 g NaCl, 0.20 g KCl, 1.00 g Na2 HPO4 .cndot.2H2 O, 0.15 g NaH2 PO4 .cndot.H2 O, 0.20 g KH2 PO4, adjusted to pH 7.4 with 3 N NH3 in a final volume of 1000 ml of double distilled H2 O). Cell counts were conducted with a Sysmex microcellcounter CC-130. Preincubation was performed with 2.4 ml of the suspension and 10 μl of a DMSO stock solution of each test compound at the desired concentration in PBS or vehicle control (DMSO at final concentration of 0.4%) for 15 min at 37° C. in a shaking water bath. The syntheses of LTB 4 and 5-HETE were stimulated by the addition of CaCl2 and Ca-ionophore A23187 (final concentrations 2 mM and 20 μM, respectively), and the incubation was conducted for 10 min at 37° C. 5-LO product formation was terminated by the addition of 3.0 ml of methanol/acetonitrile (1+1) containing NDGA as radical scavenger (final concentration 0.01 mM) and prostaglandin B2 PG B2 as chromatographic marker (final concentration 0.3 μM). The incubation mixture was kept in an ice bath for 20 min and then centrifuged at 4000 g for 5 min at 0° C. The supernatant was diluted with 5 ml of water and passed through a prewashed (10 ml of methanol and 5 ml of water, sequentially) octadecylsilane reversed phase cartridge (Baker). The eicosanoids were eluted with 3 ml of methanol, diluted with 3 ml of water and subjected to reversed phase high performance liquid chrometography (HPLC) analysis, performed on a 250×4 mm column packed with Nucleosil C18 (7 μm particles; Bischoff, Leonberg, Germany). The isocratic elution conditions of LTB4 were tetrahydrofuran (THF)/methanol/water/acetic acid (25+30+45+0.1), adjusted to pH 5.5 with concentrated NH3, at a flow rate of 0.9 ml/min (Kontron 420 pump), monitored at 280 nm with a Kontron 735 LC UV detector, whereas 5-HETE was monitored at 232 nm using methanol/water/acetic acid (77+23+0.1), pH 5.5,flow rate 1.0ml/min. Data were recorded on a MacLab data acquisition system (WissTech, Germany) and analysis was performed with the application Peaks on an Apple Macintosh Quadra 700 computer. Integrated areas of the peaks were compared to the PGB2 internal standard and to external standards of test samples. Molar absorption coefficients of Samuelsson et al., Borgeat, P. and B. Samuelsson, "Arachidonic Acid Metabolism in Polymorphonuclear Leukocytes: Effects of Ionophore A23187", Proc. Nat. Acad. Sci. USA, 76, 2148-2152 (1979), were used for calculations. Inhibition was calculated by comparison of the mean values of test compound (n=3) with control (n=6-8) activity: (1-test compound/control)×100.
By the above method, the anthracenone derivatives of the invention were evaluated for their ability to inhibit the production of LTB4 and 5-HETE in isolated bovine polymorphonuclear leucocytes (PMNL), see Walstra, P. et al., "Leukotriene Formation by Bovine Polymorphonuclear Leukocytes", Biochim. Biophys. Acta, 795,499-503 (1984); Dannhardt, G. and also M. Lehr, "In-Vitro Evaluation of 5-Lipoxygenase and Cyclo-Oxygenase Inhibitors Using Bovine Neutrophils and Platelets and HPLC", J. Pharm. Pharmacol., 44, 419-424 (1992). LTB4 and 5-HETE concentrations were measured by reversed-phase HPLC with UV detection.

HaCaT cells = experiment: Antiproliferative Activity Assay, HaCaT cell growth; assay type: cell-based, human; settings: 48 h
Method: HaCaT cells, a rapidly multiplying human keratinocyte cell line, were grown in Dulbecco's modified Eagle medium (DMEM), No. 041-11965A, Gibco) supplemented with 10% fetal calf serum, penicillin (100U/ml), streptomycin (100 μg/ml) in a humidified incubator containing 8% CO2 at 37° C. Cells ([…] /1.1 ml suspension per well) were seeded on 24-wells-multidishes and grown in DMEM. After 24 hours growth the medium was replaced with fresh medium and the test compounds (0.1-5 μM) were added. […] Controls were performed with DMSO or with medium alone. Forty-eight hours after addition of the test compound to the culture, the medium was removed and each well was rinsed with 100 μL PBS. The cells were then incubated with sterile 0.5% trypsin, 0.2% EDTA in PBS for 20 minutes at 37° C. The detached cells from each well were suspended in DMEM and dispersed into single cells by gentle pipetting through an Eppendorf pipette, and cell growth was determined directly by counting the keratinocytes in a Neubauer counting chamber using phase contrast microscopy. Inhibition was calculated by comparison of the mean values of the test compound (N=3) with the control (N=6-8) activity: (1-test compound/control)×100.

[1] = Unna 1916; cited from earlier work
[2] = tested on: LTB4 production in bovine neutrophils; settings: read-out: Inhibition of production of LTB4, IC50; cited from earlier work
[3] = therapeutic application; cited from earlier work
[4] = tested on: LTB4 production in human neutrophils; settings: depending on cell density, read-out: Inhibition of production of LTB4, IC50; cited from earlier work
[5] = HaCaT cells, N = 3, read-out: AA IC50 (antiproliferative activity)
[6] = Homo sapiens, HaCaT, HaCaT cells, N = 3, read-out: AA IC50 (antiproliferative activity)

SMILES: O=C1c2c(O)cccc2C(SCc2ccccc2)c2cccc(O)c21 [4A, reference compound]
- inhibition at 30 µM (5-LO): 46%
- IC50 (HaCaT cells; Homo sapiens, HaCaT, read-out: AA IC50 (antiproliferative activity)): 1400 nM

SMILES: O=C1c2c(O)cccc2C(Sc2ccccc2S)c2cccc(O)c21 [Compound 4c]
- IC50 (HaCaT cells; [5]): ≤ 100 nM
- IC50 (HaCaT cells; [6]): 100 nM

SMILES: O=C1c2c(O)cccc2C(SCCCS)c2cccc(O)c21 [Compound 3f]
- inhibition at 30 µM (5-LO): 14%
- IC50 (HaCaT cells; [6]): 770 nM

SMILES: Nc1cccc(SC2c3cccc(O)c3C(=O)c3c(O)cccc32)c1 [Compound 3m]
- IC50 (5-LO; read-out: 5-LO IC50): 2400 nM
- IC50 (HaCaT cells; [6]): 1900 nM

SMILES: O=C1c2c(O)cccc2C(Sc2cccc(S)c2)c2cccc(O)c21 [Compound 4d]
- IC50 (HaCaT cells; [6]): > 5000 nM

SMILES: Nc1ccc(SC2c3cccc(O)c3C(=O)c3c(O)cccc32)cc1 [Compound 3n]
- IC50 (5-LO; read-out: 5-LO IC50): 7500 nM
- IC50 (HaCaT cells; [6]): 900 nM

SMILES: Nc1ccccc1SC1c2cccc(O)c2C(=O)c2c(O)cccc21 [Compound 3l]
- IC50 (5-LO; read-out: 5-LO IC50): 2400 nM
- IC50 (HaCaT cells; HaCaT cells, N = 3, listed as 31, read-out: AA IC50 (antiproliferative activity)): ≤ 100 nM
- IC50 (HaCaT cells; [6]): 100 nM

SMILES: COc1ccccc1SC1c2cccc(O)c2C(=O)c2c(O)cccc21 [Compound 3i]
- IC50 (5-LO; read-out: 5-LO IC50): 6300 nM
- IC50 (HaCaT cells; [6]): 4250 nM

SMILES: COC(=O)CSC1c2cccc(O)c2C(=O)c2c(O)cccc21 [3-A, reference compound]
- IC50 (5-LO): 13000 nM
- IC50 (HaCaT cells; [6]): 190000 nM

SMILES: CCOC(=O)CSC1c2cccc(O)c2C(=O)c2c(O)cccc21 [3-B, reference compound]
- inhibition at 30 µM (5-LO): 42%
- IC50 (HaCaT cells; [6]): 4520 nM

SMILES: O=C1c2ccccc2Cc2cccc(O)c21 [1-hydroxy-9(10H)-anthracenone]
- Therapeutic effect in psoriasis [1]: effective in the treatment of psoriasis

SMILES: CCCCOC(=O)CSC1c2cccc(O)c2C(=O)c2c(O)cccc21 [Compound 3a]
- inhibition at 30 µM (5-LO): 8%
- IC50 (HaCaT cells; [6]): 2100 nM

SMILES: COC(=O)CCSC1c2cccc(O)c2C(=O)c2c(O)cccc21 [Compound 3c]
- IC50 (5-LO; read-out: 5-LO IC50): 15000 nM
- IC50 (HaCaT cells; [6]): 1100 nM

SMILES: CC(SC1c2cccc(O)c2C(=O)c2c(O)cccc21)C(=O)O (centres unmarked) [Compound 3b]
- inhibition at 30 µM (5-LO): 28%
- IC50 (HaCaT cells; [6]): 200 nM

SMILES: O=C1c2c(O)cccc2C(Sc2ccc(O)cc2)c2cccc(O)c21 [Compound 4b, 1,8-Dihydroxy-10-[(4-hydroxyphenyl)thio]-9(10H)-anthracenone]
- IC50 (5-LO; read-out: 5-LO IC50): 2400 nM
- IC50 (HaCaT cells; [5]): ≤ 100 nM
- IC50 (HaCaT cells; [6]): < 100 nM

SMILES: CCOC(=O)CCSC1c2cccc(O)c2C(=O)c2c(O)cccc21 [Compound 3d]
- inhibition at 30 µM (5-LO): 30%
- IC50 (HaCaT cells; [6]): 1600 nM

SMILES: CCCCOC(=O)CCSC1c2cccc(O)c2C(=O)c2c(O)cccc21 [Compound 3e]
- inhibition at 30 µM (5-LO): 62%
- IC50 (HaCaT cells; [6]): 2300 nM

SMILES: O=C1c2c(O)cccc2C(Sc2ccccc2O)c2cccc(O)c21 [Compound 4a]
- IC50 (5-LO; read-out: 5-LO IC50): 5000 nM
- IC50 (HaCaT cells; [6]): 1750 nM

SMILES: COc1ccc(SC2c3cccc(O)c3C(=O)c3c(O)cccc32)cc1 [Compound 3k]
- IC50 (5-LO; read-out: 5-LO IC50): 3200 nM
- IC50 (HaCaT cells; [6]): 1690 nM

SMILES: O=C1c2c(O)cccc2Cc2cccc(O)c21 [anthralin, 1,8-dihydroxy-9(10H)-anthracenone]
- Therapeutic effect in psoriasis [1]: effective in the treatment of psoriasis
- IC50 [2]: 37000 nM
- Irritation / side effects [3]: non-affected skin surrounding a psoriatic lesion to which anthralin is applied frequently becomes irritated
- IC50 [4]: 7000 to 74000 nM
- IC50 (5-LO; read-out: 5-LO IC50): 37000 nM
- IC50 (HaCaT cells; [6]): 600 nM

SMILES: COc1cccc(SC2c3cccc(O)c3C(=O)c3c(O)cccc32)c1 [Compound 3j]
- inhibition at 30 µM (5-LO): 100%
- IC50 (HaCaT cells; [6]): 1800 nM

SMILES: CCCC(=O)C1c2cccc(O)c2C(=O)c2c(O)cccc21 [butantrone, 10-Butyryl-Dithranol]
- Irritation / side effects [3]: elicits a widespread and delayed irritation effect in many patients
